Laboratory results as given in patent US10485769B2, “Cholesteryl ester transfer protein (CETP) inhibition in the treatment of cancer” (KING ABDULLAH UNIVERSITY OF SCIENCE AND TECHNOLOGY, priority 2015, dated 2019).

Experiments:
MCF-7 CETP siRNA cells = assay: MMP, caspase-3/7 activity and apoptosis in CETP knockdown MCF-7 cells; format: cell-based, human; details: 25 μM tamoxifen, 24 h, CETP knockout cells
Method: FIG. 10: The effect of CETP mRNA silencing on MMP (A), Capase-3/7 activity (B) and apoptosis in MCF-7 (C) and BJ (D) untransfected, cntl siRNA and CETP knockout cells after treatment with 10 μM PL or AP. Values represent the means±SD of three independent experiments.
FIG. 12: The effect of CETP mRNA knockout on Capase-3/7 activity (A) and apoptosis (B) in MCF-7 cntl siRNA and CETP knockout cells after treatment with 25 μM tamoxifen for 24 h. Values represent the means±SD of three independent experiments.
Since, as shown above, CETP is required for optimal growth of MCF-7 cells, we further hypothesized that CETP may help cancer cell to resist/escape apoptotic signals thus preventing cell death. Several apoptotic markers such as MOMP, phosphatidylserine exposure and caspase-3/7 activity were tested to establish a link between CETP and apoptosis.
Next, we intended to see if CETP silencing increased sensitivity of MCF-7 cells to apoptosis.
To test if effect of CETP knockout on apoptosis in MCF-7 is limited to AP, we treated the CETP knockout MCF-7 cells with tamoxifen (a known first line drug for breast cancer treatment). […] This observation was not limited to PL and AP as similar observations were made in CETP knockdown cells treated with tamoxifen (FIG. 12).

MCF-7 cells = assay: Mitochondrial Outer Membrane Potential (MOMP) by flow cytometry; format: cell-based, human; details: 10 μM PL, AP; 100 mM H2O2 positive control; versus untreated cells
Method: FIG. 2: Mode of induction in MCF-7 cells after treatment with AP and PL was determined by measuring changes in MOMP and levels of apoptosis-associated proteins. The cells were incubated with 10 μM AP and PL for different time intervals to capture the timeline of apoptosis induction in MCF-7 cells. The changes in MOMP were measured using flow cytometry after treating MCF-7 cells with PL and AP for 1, 2 and 4 h (A). The alteration in expression of several apoptosis-associated proteins were determined using western blotting after incubating MCF-7 cells for 1, 2, 4, 6 h with PL (C, E) and AP (D. F).
The changes in Mitochondrial Outer Membrane Potential (MOMP) and proteins involved in the apoptotic cascade were assessed (FIG. 2).

SMILES	caspase-3/7 activity (MCF-7 CETP siRNA cells)	MOMP, fluorescence in the FL-2 channel (MCF-7 cells)
CC/C(=C(\c1ccccc1)c1ccc(OCCN(C)C)cc1)c1ccccc1 [tamoxifen]	significant increase	–
OO [H2O2]	–	lower fluorescent values
